Read-outs that look alike come from different tables or passages of the source.
What was measured:
[1] = tested on: RL cancer line; assay: Synergy MTT test with cytotoxic nucleoside analogs; assay type: cell-based, Human; conditions: for Synergy MTT with cladribine / Synergy MTT with clofarabine / Synergy MTT with fludarabine: RL cells, 72 h, constant ratio, CI95; for Synergy MTT with cladribine: partner cladribine; for Synergy MTT with clofarabine: partner clofarabine; for Synergy MTT with fludarabine: partner fludarabine; for synergistic effect with at least one of the three anticancer agents: cladribine, clofarabine, fludarabine
Protocol: (§2) After 72 h of incubation, the living cells are quantified using the MTT reagent.
(§3) The inhibitory concentration 50 (IC50) and the combination index (CI95) are calculated with the CompuSyn software 1.0 (ComboSyn, Inc., USA).
The CI95 is calculated according to the method of Chou and Talalay^3 with a formula which takes into account the concentrations of the two compounds and the fraction affected at these concentrations (i.e. the dead cells).

[2] = molecular target: purified recombinant cN-II enzyme (Homo sapiens, UniProt P49902); assay: cN-II inhibition test (inorganic phosphate from IMP, Malachite green); assay type: biochemical; design: key to Inhibition strength (Strong/Medium/Weak): Strong; Medium; Weak
Protocol: The activity of cN-II is measured in vitro by following the appearance of the inorganic phosphate produced during the enzymatic reaction. The purified recombinant cN-II enzyme is used in the presence of its preferential substrate, inosine 5′-monophosphate (IMP). During the hydrolysis reaction, inosine and inorganic phosphate are produced from the IMP. This phosphate is then assayed by means of a colorimetric method using Malachite green (kit sold by the company Gentaur): the reading of absorbence at 630 nm makes it possible to quantify the inorganic phosphate.
The reagents used are: 50 mM imidazole buffer, pH=6.5, 500 mM NaCl and 10 mM MgCl2. The enzyme (cN-II) concentration is 0.1 μM and the IMP concentration is 100 μM.
A phosphate concentration range is performed in parallel in order to quantify the phosphate produced during the reaction.

[3] = tested on: RL human follicular lymphoma cell line; assay: cytotoxicity on RL cancer line (MTT, IC50); conditions: for IC50: read-out: RL cancer line IC50, 72 h incubation, MTT
Protocol: as §2, §3

[4] = tested on: cells of AML patients; assay: ex vivo cytotoxicity, Annexin V / propidium iodide flow cytometry, AML patient cells; assay type: cell-based, human; conditions: 100 μM, 24 hours
Protocol: (§1) Peripheral blood was recovered from patients suffering from chronic […] leukemia (LLC) or from acute myeloid leukemia (AML) in heparinized tubes. […] The cells having experienced an effect of the incubations are labeled with Annexin V alone or with propidium iodide (see FIG. 6).

[5] = tested on: cells of CLL patients; assay: ex vivo cytotoxicity, Annexin V / propidium iodide flow cytometry, CLL patient cells; assay type: cell-based, human; conditions: 10 μM, 24 hours
Protocol: as §1

[6] = 200 μM compound, 0.1 μM cN-II, 100 μM IMP, pH 6.5, 37° C.

Sequence of purified recombinant cN-II enzyme (P49902 whole entry): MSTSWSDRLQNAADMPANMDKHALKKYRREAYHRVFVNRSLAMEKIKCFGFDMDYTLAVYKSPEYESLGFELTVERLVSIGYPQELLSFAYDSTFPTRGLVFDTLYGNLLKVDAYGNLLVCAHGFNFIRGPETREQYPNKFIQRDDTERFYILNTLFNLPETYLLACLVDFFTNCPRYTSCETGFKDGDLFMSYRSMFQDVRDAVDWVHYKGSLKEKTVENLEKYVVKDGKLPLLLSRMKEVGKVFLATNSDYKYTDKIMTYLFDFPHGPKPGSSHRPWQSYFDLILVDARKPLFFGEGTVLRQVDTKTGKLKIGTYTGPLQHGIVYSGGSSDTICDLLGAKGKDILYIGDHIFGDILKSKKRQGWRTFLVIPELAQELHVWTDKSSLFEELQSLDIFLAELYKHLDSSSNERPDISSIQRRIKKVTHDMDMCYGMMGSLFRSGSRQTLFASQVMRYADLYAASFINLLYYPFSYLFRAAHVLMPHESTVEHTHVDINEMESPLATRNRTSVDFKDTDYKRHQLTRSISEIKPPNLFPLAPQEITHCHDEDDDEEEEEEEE

Compound | Synergy MTT with cladribine [1] | Synergy MTT with fludarabine [1] | synergistic effect with at least one of the three anticancer agents [1] | IC50 [3] | Inhibition cN-II in vitro (200 μM) [2, 6] | Inhibition strength (Strong/Medium/Weak) ([2]; cN-II) | also measured
9-(phenylmethyl)-9H-purin-6-yl-[1,1′-biphenyl]-3-carboxamide [(20)] | Antagonistic with (values above 1.1 indicate antagonism) | Synergy with (CI95 values below 0.9 indicate synergy between the two compounds) | synergistic effect | – | – | – | Synergy MTT with clofarabine [1]: Antagonistic with (values above 1.1 indicate antagonism); Inhibition strength (Strong/Medium/Weak) [2]: S; Inhibition cN-II in vitro (200 μM) ([2]; pH 6.5): 58 +/−19%
O=C(Nc1ncnc2ncn(Cc3ccccc3)c12)c1cccc(-c2ccccc2)c1 [(19)] | Synergy with (CI95 values below 0.9 indicate synergy between the two compounds) | Synergy with (CI95 values below 0.9 indicate synergy between the two compounds) | synergistic effect | 60 µM | 68 +/− 15% | S | –
O=C(Nc1ncnc2ncn(COCc3ccccc3)c12)c1cccc(-c2ccccc2)c1 [(21)] | Synergy with (CI95 values below 0.9 indicate synergy between the two compounds) | Additive with (values between 0.9 and 1.1 indicate additivity) | synergistic effect | 36 µM | 50 +/− 2% | M | Synergy MTT with clofarabine [1]: Synergy with (CI95 values below 0.9 indicate synergy between the two compounds); intrinsic cytotoxic activity, IC50 values ([3]; cell model used (RL)): a few micromolar to a few tens of micromolar
O=C(Nc1ncnc2c1ncn2COCc1ccccc1)c1cccc(-c2ccccc2)c1 [(22), 9-[(phenylmethoxy)methyl]-9H-purin-6-yl-[1,1′-biphenyl]-3-carboxamide] | – | – | – | 188 µM | 43 +/− 7% | M | –
O=S(=O)(Nc1ncnc2[nH]cnc12)c1ccc(-c2ccccc2)cc1 [(33), 9H-purin-6-yl-[1,1′-biphenyl]-4-sulfonamide] | – | – | – | 195 µM | 70 +/− 5% | S | –
Nc1ccn([C@@H]2O[C@H](CO)[C@@H](O)[C@@H]2O)c(=O)n1 [cytarabine] | – | – | – | – | – | – | Annexin V labeling, AML samples, mean over the five samples [4]: 44.5%
Nc1nc(F)nc2c1ncn2[C@@H]1O[C@H](CO)[C@@H](O)[C@@H]1O [fludarabine] | – | – | – | – | – | – | Annexin V labeling, CLL samples [5]: 45.8%
(naphthalene-1-carbonylamino-9H-purin-6-yl)methylphosphonic acid [(31)] | – | – | – | 250 µM | 10% | W | –
(naphthalene-2-carbonylamino-9H-purin-6-yl)methylphosphonic acid [(32)] | – | – | – | 145 µM | 10% | W | –

— patent US9783541B2, “5′-nucleotidase inhibitors and therapeutic uses thereof” (Centre National de la Recherche Scientifique-CNRS, priority 2013, dated 2017)
